System: Aβ42 release
Assay: Aβ42 release from HEK cells stably expressing APPswe, Meso Scale Discovery electrochemiluminescence assay
Assay type: cell-based
Conditions: Homo sapiens, HEK293; HEK cell line stably expressing APPswe; 4-6 h incubation with test compound; Aβ42 secreted to cell medium; read-out: pIC50 values of Aβ42 release (converted)
Method: The level of activity of the compounds on Aβ formation was tested using the following method:
Compounds were diluted in 100% DMSO and stored at […] prior to use. Human Embryonic Kidney (HEK) cell line stably expressing APP with the Swedish mutation (APPswe) were cultured using Dulbecco's Modified Eagles medium (DMEM) supplied with […] glucose, Na-pyruvate and GlutaMAX with 10% FBS, 100 U/ml penicillin-streptomycin (PEST) respectively, 1×non-essential amino acids (NEAA), […], 100 μg/ml Zeocine. Cells at about 80% confluence were washed with PBS, detached from culture flasks using 1×Trypsin/EDTA diluted in PBS, re-suspended in cell media and plated in 384-well poly-d-lysine coated cell culture plates at about 10000-15000 cells/well, in 25 μL cell media. Optionally, cryo-preserved cells (frozen and stored at −140° C. in 90% cell media and 10% DMSO) were thawed, washed and plated as above. Next the cells were incubated for 15-24 h at 37° C. and 5% CO2, after which cell medium was changed. Fresh medium containing test compound diluted ×200 from prepared compound plate was added to the cells before further incubation for 4-6 hours at 37° C. and 5% CO2. After incubation with test compound the amount of Aβ peptides, including Aβ42, Aβ40, Aβ39, Aβ38 and Aβ37, secreted to cell medium was analyzed using the electrochemiluminescence assay technology from Meso Scale Discovery Technology, in combination with specific antibodies raised against the different Aβ peptides. Potential cytotoxic effects of the compounds were usually assayed by measuring the ATP content (ViaLight) from cell lysate.

IC50 [nM] | Structure (SMILES)
31.6 | Cc1cn(-c2ccc(Nc3ccc4c(n3)O[C@H](c3ccccc3)CN(CCO)C4)cc2)cn1 [Example 42, (R)-2-(8-(4-(4-Methyl-1H-imidazol-1-yl)phenylamino)-2-phenyl-2,3-dihydropyrido[3,2-f][1,4]oxazepin-4(5H)-yl)ethanol]
31.6 | COc1cc(Nc2ccc3c(n2)O[C@H](c2ccccc2)CN(CCO)C3)cnc1-n1cnc(C)c1 [Example 43, (R)-2-(8-(5-methoxy-6-(4-methyl-1H-imidazol-1-yl)pyridin-3-ylamino)-2-phenyl-2,3-dihydropyrido[3,2-f][1,4]oxazepin-4(5H)-yl)ethanol]
31.6 | COc1cc(Nc2ccc3c(n2)O[C@H](c2ccccc2)CN(C)C3)ccc1-n1cnc(C)n1 [Example 44, (R)—N-(3-Methoxy-4-(3-methyl-1H-1,2,4-triazol-1-yl)phenyl)-4-methyl-2-phenyl-2,3,4,5-tetrahydropyrido[3,2-f][1,4]oxazepin-8-amine]
25.1 | COc1cc(Nc2ccc3c(n2)O[C@H](c2ccccc2)CN(C2CC2)C3)ccc1-n1cnc(C)n1 [Example 45, (R)-4-Cyclopropyl-N-(3-methoxy-4-(3-methyl-1H-1,2,4-triazol-1-yl)phenyl)-2-phenyl-2,3,4,5-tetrahydropyrido[3,2-f][1,4]oxazepin-8-amine]
25.1 | COc1cc(Nc2ccc3c(n2)OC(c2ccccc2)CN(CCO)C3)ccc1-n1cnc(C)c1 (stereo not shown) [Example 46, 2-(8-(3-Methoxy-4-(4-methyl-1H-imidazol-1-yl)phenylamino)-2-phenyl-2,3-dihydropyrido[3,2-f][1,4]oxazepin-4(5H)-yl)ethanol]
15.8 | COc1cc(Nc2ccc3c(n2)O[C@H](c2ccccc2)CN(CC#N)C3)ccc1-n1cnc(C)c1 [Example 47, (R)-2-(8-(3-Methoxy-4-(4-methyl-1H-imidazol-1-yl)phenylamino)-2-phenyl-2,3-dihydropyrido[3,2-f][1,4]oxazepin-4(5H)-yl)acetonitrile]
100 | Cc1ncn(-c2ccc(Nc3ccc4c(n3)O[C@H](c3ccccc3)CN(C)C4)cc2)n1 [Example 48, (R)-4-Methyl-N-(4-(3-methyl-1H-1,2,4-triazol-1-yl)phenyl)-2-phenyl-2,3,4,5-tetrahydropyrido[3,2-f][1,4]oxazepin-8-amine]
100 | COc1cc(Nc2ccc3c(n2)OC(C2CC2)CN(C)C3)ccc1-n1cnc(C)c1 (stereo not shown) [Example 49, 2-Cyclopropyl-N-(3-methoxy-4-(4-methyl-1H-imidazol-1-yl)phenyl)-4-methyl-2,3,4,5-tetrahydropyrido[3,2-f][1,4]oxazepin-8-amine]
7.94 | COc1nc(Nc2ccc3c(n2)O[C@H](c2ccccc2)CN(C)C3)ccc1-c1cnn(C)c1 [Example 50, (R)—N-(6-Methoxy-5-(1-methyl-1H-pyrazol-4-yl)pyridin-2-yl)-4-methyl-2-phenyl-2,3,4,5-tetrahydropyrido[3,2-f][1,4]oxazepin-8-amine]
501 | COc1cc(Nc2ccc3c(n2)OC(C2CC2)CN(C)C3)ccc1-n1cnc(C)n1 (stereo not shown) [Example 51, 2-Cyclopropyl-N-(3-methoxy-4-(3-methyl-1H-1,2,4-triazol-1-yl)phenyl)-4-methyl-2,3,4,5-tetrahydropyrido[3,2-f][1,4]oxazepin-8-amine]
398 | COc1cc(Nc2ccc3c(n2)OC(c2cccc(C)n2)CN(C)C3)ccc1-n1cnc(C)n1 (stereo not shown) [Example 52, N-(3-Methoxy-4-(3-methyl-1H-1,2,4-triazol-1-yl)phenyl)-4-methyl-2-(6-methylpyridin-2-yl)-2,3,4,5-tetrahydropyrido[3,2-f][1,4]oxazepin-8-amine]
50.1 | COc1nc(Nc2ccc3c(n2)OC(c2cccc(C)n2)CN(C)C3)ccc1-c1cnn(C)c1 (stereo not shown) [Example 53, N-(6-Methoxy-5-(1-methyl-1H-pyrazol-4-yl)pyridin-2-yl)-4-methyl-2-(6-methylpyridin-2-yl)-2,3,4,5-tetrahydropyrido[3,2-f][1,4]oxazepin-8-amine]
> 3160 | Cc1cccc(C2CN(C)Cc3ccc(Nc4ccc(-c5cnn(C)c5)nc4)nc3O2)n1 (stereo not shown) [Example 54, 4-Methyl-N-(6-(1-methyl-1H-pyrazol-4-yl)pyridin-3-yl)-2-(6-methylpyridin-2-yl)-2,3,4,5-tetrahydropyrido[3,2-f][1,4]oxazepin-8-amine]
31.6 | COc1cc(Nc2ccc3c(n2)O[C@H](c2ccccc2)CNC3)ccc1-n1cnc(C)c1 [Example 55, (R)—N-(3-Methoxy-4-(4-methyl-1H-imidazol-1-yl)phenyl)-2-phenyl-2,3,4,5-tetrahydropyrido[3,2-f][1,4]oxazepin-8-amine]
10 | COc1nc(Nc2ccc3c(n2)O[C@H](c2ccccc2)CNC3)ccc1-c1cnn(C)c1 [Example 56, (R)—N-(6-Methoxy-5-(1-methyl-1H-pyrazol-4-yl)pyridin-2-yl)-2-phenyl-2,3,4,5-tetrahydropyrido[3,2-f][1,4]oxazepin-8-amine]
126 | Cn1cc(-c2ccc(Nc3ccc4c(n3)O[C@H](c3ccccc3)CNC4)nc2)cn1 [Example 57, (R)—N-(5-(1-Methyl-1H-pyrazol-4-yl)pyridin-2-yl)-2-phenyl-2,3,4,5-tetrahydropyrido[3,2-f][1,4]oxazepin-8-amine]
316 | CN1Cc2ccc(Nc3ccc(-c4cnn(C)c4)nc3)nc2O[C@H](c2ccccc2)C1 [Example 58, (R)-4-Methyl-N-(6-(1-methyl-1H-pyrazol-4-yl)pyridin-3-yl)-2-phenyl-2,3,4,5-tetrahydropyrido[3,2-f][1,4]oxazepin-8-amine]
79.4 | CN1Cc2ccc(Nc3ccc(-c4cnn(C)c4)cc3)nc2O[C@H](c2ccccc2)C1 [Example 59, (R)-4-Methyl-N-(4-(1-methyl-1H-pyrazol-4-yl)phenyl)-2-phenyl-2,3,4,5-tetrahydropyrido[3,2-f][1,4]oxazepin-8-amine]
31.6 | CN1Cc2ccc(Nc3ccc(-n4ccnc4CO)cc3)nc2O[C@H](c2ccccc2)C1 [Example 60, (R)-(1-(4-(4-Methyl-2-phenyl-2,3,4,5-tetrahydropyrido[3,2-f][1,4]oxazepin-8-ylamino)phenyl)-1H-imidazol-2-yl)methanol]
